Data set [1] in a line: Stability in PBS by UV-Vis spectroscopy. It counts as physicochemical. As to conditions: 10 μM, PBS, 0, 24 and 48 h. The method, then: (§1) The stabilities of RuRe-1 and RuRe-2 in PBS and human serum albumin (HSA) were tested through UV–Vis spectroscopy.
(§2) Supplementary Figure 12. UV-Vis absorption spectra of RuRe-1 (10 μM), RuRe-2 (10 μM), Ru-1 (10 μM), Ru-2 (10 μM) and Re-1 (10 μM) in PBS (A) and HSA (B) solution collected at 0, 24, and 48 h, respectively.

The subject of data set [2] is A549R (cisplatin-resistant A549). Nature of the data set: MTT cytotoxicity assay. It counts as cell-based, human. As to conditions: for IC50: MTT, 48 h incubation, mean ± SD; for fold greater ability to kill A549R cells than cisplatin: ratio of IC50 values, cisplatin / complex. Here is the method: The anticancer activities of RuRe-1 and RuRe-2 against four cancer cell lines: HeLa (human cervical cancer cells), HepG2 (human hepatocellular carcinoma), A549 (human lung cancer cells), A549R (cisplatin-resistant A549) and one normal cell line LO2 (human normal liver cells) were determined by 3-(4,5-dimethylthiazole)-2,5-diphenyltetraazolium bromide (MTT) assay, while the mononuclear complexes Ru-1, Ru-2, Re-1 and cisplatin were selected as controls. […] And the in vitro antiproliferative efficacies of the compounds against HeLa cells were in the following order: RuRe-2 > RuRe-1 > Re-1 > cisplatin > Ru-1 > Ru-2. […] The anticancer activity of the mononuclear rhenium complex Re-1 was between 5.6 μM and 8.0 μM, which contributed the most to the antitumor activities of the heteronuclear Ru(II)-Re(Ⅰ) metal complexes.
Cell lines and culture conditions. HeLa, HepG2, A549, A549R and LO2 cells were purchased from Nanjing KeyGen Biotech., and cultured in DMEM or RPMI 1640 complete medium at 37 ℃ with 5% CO2 atmosphere.
In vitro cytotoxicity assay. The anti-tumor activity of mononuclear complexes Ru-1, Ru-2, Re-1 and heteronuclear RuRe-1 and RuRe-2 were determined by MTT (5 mg/mL) assay. Cells were placed in 96-well plates and cultured for 24 h at 37 ℃ in a 5% CO2 incubator. After replacing the culture medium with fresh medium containing RuRe-1 or RuRe-2 at the indicated concentration, cells were cultured for 48 h. 20 μL MTT was added to each well 4 h before the end of the incubation. Subsequently, the liquid in the cell wells was poured out and 150 μL/well DMSO was added to dissolve the MTT-formazan crystals. The absorbance of living cells at 570 nm was detected.
On the technique in general: Tetrazolium dyes change colour on reduction, which living cells bring about.

The test system of another data set is caspase-3. As to the kind of experiment: Western blot of apoptosis-related proteins. Format: cell-based, human. As to conditions: HeLa, different concentrations, 24 h. Here is the method: (§3) Cysteine aspartate proteases play an important role in apoptosis, especially caspase-3 protein, which is one of the most important execution factors in the apoptotic pathway ([Wang X. et al., 2021]). The poly(ADP-ribose) polymerase (PARP) is associated with DNA repair and guardianship of genetic integrity ([Pandey and Black, 2021]). After treating HeLa cells with different concentrations of RuRe-1 or RuRe-2 for 24 h, the expression of caspase-3 and the caspase substrate PARP apoptotic protein were detected by western blot. […] It was further shown that RuRe-1 and RuRe-2 are activators of caspase-3, which can trigger apoptosis in HeLa cells.
(§4) FIGURE 4 Expression of apoptosis-related protein (caspase-3 and PARP) in HeLa cells treated with RuRe-1 and RuRe-2 for 24 h.
(§5) Western blot analysis. HeLa cells were plated into the 6-well plates, after treating with different doses of RuRe-1 and RuRe-2 for 24 h, the cells were collected and lysed. The protein concentration was determined using the BCA assay kit. Equal amounts of protein were ran on SDS-PAGE and then transferred to the PVDF membrane.

Another data set relates to PARP. As to the kind of experiment: Western blot of apoptosis-related proteins. Format: cell-based, human. As to conditions: HeLa, different concentrations, 24 h. The method, then: as §3, §4, §5
For orientation: Immunoblotting shows a protein as a band on a membrane.

Another data set concerns HeLa cells. As to the kind of experiment: Wound healing assay (cell migration). Format: cell-based, human. As to conditions: 36 h, control 15%. Here is the method: Metastasis is a major obstacle to cancer treatment, which will cause the failure of cancer treatment and the death of patients ([Fouani et al., 2017]). Cell migration is the main feature of metastasis. Herein, the effects of RuRe-1 and RuRe-2 on inhibiting cell migration were studied through wound healing. […] After 36 h cultivated, both RuRe-1 and RuRe-2 inhibited cell migration, and the wound closure rates were 3% and 2%, respectively, which were lower than 15% of the control group (Figure 8B).
FIGURE 8 (A) Wound healing of HeLa cells after treated with RuRe-1 (3.1 μM) and RuRe-2 (2.5 μM) for 0, 24, and 36 h. (B) Quantitative data of wound-healing. Wound closure (%) = [1−(width at indicated time)/(width at 0 h)] × 100%. (C) Inhibition of colony formation by RuRe-1 and RuRe-2. (D) Quantitative data of colony formation assays.
Wound healing assay. When reaching 80%–90% confluence, the cells were crossed with a 200 μL pipette tip, then photographed under an inverted microscope to record the width of the scratch. After the cells recovered for 1 h, the serum-free medium containing the indicated concentrations of RuRe-1 and RuRe-2 were added and incubated for a specific time (24 h, 36 h), meantime, the width of the scratch was recorded.

Data set [3] is described as follows: Stability in human serum albumin (HSA) solution by UV-Vis spectroscopy. It counts as physicochemical. As to conditions: 10 μM, HSA solution, 0, 24 and 48 h. Here is the method:
as §1, §2

The results in this text go back to paper PMC9196629, “Synthesis, Characterization and Antitumor Mechanism Investigation of Heterometallic Ru(Ⅱ)-Re(Ⅰ) Complexes” (Frontiers in Chemistry, 2022).

By IC50 is commonly meant the concentration at which inhibition is half-maximal. A low value points to inhibition by little substance. For `F[P-](F)(F)(F)(F)F.F[P-](F)(F)(F)(F)F.F[P-](F)(F)(F)(F)F.[C-]#[O+].[C-]#[O+].[C-]#[O+].[Re+].[Ru+2].c1ccc(-c2ccccn2)nc1.c1ccc(-c2ccccn2)nc1.c1ccc(-c2ccnc3c2ccc2c(-c4ccccc4)ccnc23)cc1.c1cnc2c(c1)c1nc(-c3ccncc3)[nH]c1c1cccnc12` [RuRe-1, [Ru(bpy)2LRe(CO)3(DIP)](PF6)3], in data set [1], the “stability in PBS (UV-Vis spectral characteristics and absorption peaks)” value was “no significant change”. Besides, in data set [2], inhibition was half-maximal at 10.4 ± 1.2 µM (IC50) and the “fold greater ability to kill A549R cells than cisplatin” value is “approximately 8.7 fold”. Besides, the “cleavage of caspase-3 (western blot)” value with caspase-3 is listed as “induced the cleavage”. Besides, in the data set on PARP, the “cleavage of PARP (western blot)” value was “induced the cleavage”. Further, the wound closure rate with HeLa cells (3.1 μM) was found to be 3%. The “stability in HSA (UV-Vis spectral characteristics and absorption peaks)” value in data set [3] is listed as “no significant change”.
With `F[P-](F)(F)(F)(F)F.F[P-](F)(F)(F)(F)F.F[P-](F)(F)(F)(F)F.[C-]#[O+].[C-]#[O+].[C-]#[O+].[Re+].[Ru+2].c1ccc(-c2ccnc3c2ccc2c(-c4ccccc4)ccnc23)cc1.c1cnc2c(c1)c1nc(-c3ccncc3)[nH]c1c1cccnc12.c1cnc2c(c1)ccc1cccnc12.c1cnc2c(c1)ccc1cccnc12` [RuRe-2, [Ru(phen)2LRe(CO)3(DIP)](PF6)3], the “stability in PBS (UV-Vis spectral characteristics and absorption peaks)” value in data set [1] is reported as “no significant change”. Moreover, in data set [2], it took 16.7 ± 0.8 µM to reach half-maximal inhibition (IC50) and the “fold greater ability to kill A549R cells than cisplatin” value was around 5.4 fold. Moreover, in the data set on caspase-3, the “cleavage of caspase-3 (western blot)” value was “induced the cleavage”. The “cleavage of PARP (western blot)” value in the data set with PARP was “induced the cleavage”. Further, in the data set on HeLa cells (2.5 μM), the wound closure rate came to 2%. Also, in data set [3], the “stability in HSA (UV-Vis spectral characteristics and absorption peaks)” value was “no significant change”.
